Assay results published in patent publication US12138312B2, “Cell-penetrating peptides for antisense delivery” (Sarepta Therapeutics, Inc., priority 2017, dated 2024).
Like-named read-outs stand apart in the source and are kept apart here. No end group written: not given here.

Test system: HeLa 654 cells
Test: eGFP exon-skipping reporter assay, flow cytometry analysis of GFP fluorescence
Format: cell-based
[1] = eGFP fluorescence of CPP-PMO IVS2-654 conjugate compared to unconjugated PMO, 5 μM, 22 hours, MEM with 10% FBS
[2] = […], 5 μM, 22 hours, MEM with 10% FBS

Substance | Activity Relative to PMO [1] | Activity Relative to PMO [2] | other results
Penetratin | 4.2 |  | 
Melittin |  | 4.5 | 
λN(1-22): PMO IVS2-654 conjugated to CPP MDAQTRRRERRAEKQAQWKAAN (also: conjugated to PMO IVS2-654 cargo; UniProt P03045 1-22, looked up, fragment) |  | 1.4 | 
Transportan 10 |  | 0.8 | 
Pyrrhocoricin (VDKGSYLPRPTPPRPIYNRN; ends and bridges not checked; also: conjugated to PMO cargo; UniProt P37362 1-20, looked up) |  |  | Activity Relative to PMO: 1.4
Buforin 2 | 1.9 |  | 
SAP(E) | 0.8 |  | 
